{"source": "patent US12515170B2", "about": "“CO2 capture and utilization system and method” (University of Kentucky Research Foundation, priority 2021, dated 2026)", "key": {"[1]": {"test_system": "Scenedesmus acutus", "conditions": "same molar N concentration; 3% CO2; 21 days; n=3", "experimental": "In parallel, an experiment was performed using urea as a control (FIG. 13, tubes 1-3).\nExperiments were conducted in a temperature controlled (20-27° C.) 10 L tubular photobioreactor system (FIG. 13). An artificial light system set to a 16:8 light/dark cycle (T5 cool white fluorescent bulbs) delivered 500 micromole m^−2 s^−1 PAR of photoactive radiation. CO2 was delivered as 3% CO2/nitrogen balance from gas cylinders. The experiments ran for 21 days.\nThree times a week pH, UV-vis absorbance and dry mass measurements were made."}, "[2]": {"test_system": "Scenedesmus acutus", "assay": "Algae production in 800 mL bioreactors with different nitrogen sources / CO2:NH3 mole ratios", "assay_type": "cell-based", "conditions": "constant gas sparging, nitrogen source compared, no unit in Table 8 (FIG. 33: productivity g/L/day)", "experimental": "To Examine the effect CO2:NH3 mole ratios on Scenedesmus acutus culture health and productivity, experiments were conducted in 800 mL bioreactors with constant gas sparging and different CO2:NH3 mole ratios (ranging from 7:1 up to 18:1) (FIG. 33). The “cycles” indicated in FIG. 33 refer to growth cycles of algae. In this regard, each bioreactor is normally inoculated with algae at a low concentration (e.g., 0.1 g/LO and the algae are allowed to grow until a concentration of 1 g/L is obtained. At this point, the algae are harvested until a concentration of 0.1 g/L is left in the bioreactor (with the addition of fresh nutrients and water). The algae are allowed to grow again until a concentration of 1 g/L is again reached, followed by harvesting. Each period of growth up to harvesting is characterized as a growth cycle."}}}
{"compound": "N.N.O=C(O)O", "note": "[(NH4)2CO3, ammonium carbonate]", "values": [{"measurement": "algae growth rates by dry mass measurements versus urea control", "setting": "[1]", "value": "significantly higher than for the control"}, {"measurement": "culture productivity by UV-vis absorbance at 560 nm versus urea control", "setting": "[1]", "value": "significantly more productive than the control"}]}
{"compound": "O=[N+]([O-])[O-].[Na+]", "note": "[NaNO3]", "values": [{"measurement": "growth rate", "setting": "[2]", "value": "0.13 ± 0.05"}]}
{"compound": "NC(N)=O", "note": "[Urea, urea]", "values": [{"measurement": "growth rate", "setting": "[2]", "value": "0.11 ± 0.04"}]}
